Some test systems named below: UACC-257 melanoma; CCRF-CEM leukemia; HOP-92 NSCLC; NCI-H23 lung; SW-620 colon; SF-295 CNS; A549 NSCLC; PC-3 prostate; SNB-78 CNS; M19-MEL melanoma.
What all share (assay): DTP human tumour cell line panel, 48 h

Data on twelve compounds can be found in PubChem BioAssay (NCI).

“And” between values parts separate entries of the source, which are not always exact repeats. Equal entries are not always repeated.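 Cells were grown in 96-well plates and exposed to each compound for 48 hours at five concentrations; endpoints were interpolated linearly between bracketing concentrations, or set to the highest concentration if not reached. GI50 = concentration required for 50% inhibition of growth. Definition used: TGI = concentration required for complete inhibition of growth.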

The term TGI denotes the concentration giving total growth inhibition. Regarding `CC(C)c1ccc(/C(C(=O)O)=C(\O)C(=O)O)cc1`, the TGI with UACC-257 melanoma, in the test with CCRF-CEM leukemia, in the test on HOP-92 NSCLC, in the test on NCI-H23 lung, in the test with SW-620 colon and in the test with SF-295 CNS was over 100 µM each time. Also, the TGI in the test with A549 NSCLC and in the test on PC-3 prostate was over 100 µM each time.
In the case of `Cc1c(C(=O)c2ccccc2C(=O)O)c2ccccc2n1C`, the TGI with SNB-78 CNS, in the test on UACC-257 melanoma, with M19-MEL melanoma, in the test with CCRF-CEM leukemia, with NCI-H23 lung and with SW-620 colon was over 100 µM throughout. Moreover, the TGI in the test with SF-295 CNS and in the test with A549 NSCLC was over 100 µM each time.
For orientation: GI50 means the concentration that inhibits growth by half. Turning to `CO/C1=C\C(C)=C\C(C)C(O)C(C)C/C(C)=C/C=C/C(OC)C(C(C)C(O)C(C)C2(O)CC(O)C(C)C(C(C)C)O2)OC1=O` (stereo not given), the concentration for total growth inhibition (TGI) in the test with SNB-78 CNS is 25 µM; in the test with UACC-257 melanoma, 0.0699 µM and 0.0653 µM; in the test with M19-MEL melanoma, 3.12 µM; in the test on HOP-92 NSCLC, 0.0225 µM; in the test with NCI-H23 lung, 15 µM; with SF-295 CNS, 0.0215 µM and 0.0198 µM. Moreover, the TGI in the test with A549 NSCLC is 0.0222 µM and 0.0105 µM. Moreover, the GI50 in the test with UACC-257 melanoma was 0.0248 µM.
As for `CN1CCCN(C)C1c1cc([N+](=O)[O-])ccc1O`, the TGI is 61.3 µM in the test with UACC-257 melanoma; 48.5 µM with CCRF-CEM leukemia; 76.6 µM in the test with HOP-92 NSCLC; over 100 µM in the test with NCI-H23 lung; over 100 µM in the test with SW-620 colon; over 100 µM with SF-295 CNS. In addition, the TGI is over 100 µM in the test on A549 NSCLC and 72.9 µM in the test with PC-3 prostate.
For `COc1ccc(/C=C/c2nc(NCCCN(C)C)c3ccccc3n2)cc1`, the GI50 in the test with UACC-257 melanoma is 1.87 µM; with CCRF-CEM leukemia, 2.02 µM; in the test on HOP-92 NSCLC, 2.5 µM; in the test on NCI-H23 lung, 5.43 µM; in the test on SW-620 colon, 1.67 µM; in the test with SF-295 CNS it was 5.15 µM. The figures for the GI50 in the test on A549 NSCLC and with PC-3 prostate were 2.62 µM and 3.35 µM, respectively. Also, the TGI in the test with UACC-257 melanoma worked out at 3.65 µM; with CCRF-CEM leukemia, 4.53 µM; in the test with HOP-92 NSCLC, 8.15 µM; in the test with NCI-H23 lung, 11.5 µM; with SW-620 colon it was 3.49 µM; in the test with SF-295 CNS, 11 µM. Further, the concentration for total growth inhibition (TGI) was found to be 7.65 µM in the test with A549 NSCLC and 15.2 µM with PC-3 prostate.
Turning to `C=C1C(=O)O[C@H]2[C@H]1CC/C(COC(=O)NCc1ccc(Cn3c(=O)sn(CCCCl)c3=O)cc1)=C\CC[C@@]1(C)O[C@@H]21`, the GI50 in the test with UACC-257 melanoma was 1.61 µM; in the test with CCRF-CEM leukemia, 0.577 µM; with HOP-92 NSCLC, 1.1 µM; in the test on NCI-H23 lung it was 2.33 µM; in the test on SW-620 colon, 1.23 µM; in the test on SF-295 CNS it was 17.7 µM. The figures for the GI50 with A549 NSCLC and in the test on PC-3 prostate were 19.2 µM and 2.13 µM, respectively. The TGI in the test on UACC-257 melanoma was determined as 3.41 µM; in the test on CCRF-CEM leukemia, 4.03 µM; in the test on HOP-92 NSCLC, 2.47 µM; with NCI-H23 lung it was 5.36 µM; in the test on SW-620 colon it was 3.31 µM; in the test with SF-295 CNS, 31.7 µM. The TGI in the test on A549 NSCLC came to 34.6 µM; in the test on PC-3 prostate, 5.05 µM.
Turning to `CCOC(=O)C1(Cc2ccccc2)CCCCCN1` (stereo not given), the TGI with SNB-78 CNS, with M19-MEL melanoma, with HOP-92 NSCLC, in the test with NCI-H23 lung, in the test on SW-620 colon and in the test on SF-295 CNS was over 100 µM throughout. The concentration for total growth inhibition (TGI) with A549 NSCLC is over 100 µM.
With `CCCCCCCCCCN(CCCCCCCCCC)CC(=O)c1ccc2cc(Br)c3ccccc3c2c1`, the GI50 in the test with UACC-257 melanoma was 2.11 µM; in the test with CCRF-CEM leukemia, 2.36 µM; with HOP-92 NSCLC, 1.88 µM; in the test with NCI-H23 lung it was 1.78 µM; with SW-620 colon it was 1.87 µM; in the test with SF-295 CNS, 1.75 µM. The GI50 is 4.15 µM with A549 NSCLC and 2.67 µM with PC-3 prostate. The TGI with UACC-257 melanoma is 4.4 µM; in the test with CCRF-CEM leukemia, 6.96 µM; with HOP-92 NSCLC, 5.12 µM; with NCI-H23 lung, 3.4 µM; in the test on SW-620 colon, 3.75 µM; with SF-295 CNS it was 3.53 µM. Further, the TGI was determined as 14.4 µM in the test on A549 NSCLC and 8.95 µM with PC-3 prostate.
With `N#Cc1c(-c2ccccc2)cc(-c2ccc(Nc3nc(Nc4ccc(Cl)cc4)nc(Nc4ccc(Cl)cc4)n3)cc2)nc1N`, the GI50 is 1.92 µM in the test on UACC-257 melanoma; 3.1 µM in the test on CCRF-CEM leukemia; 1.06 µM in the test with HOP-92 NSCLC; 6.14 µM in the test with NCI-H23 lung; 1.91 µM with SW-620 colon; 10.3 µM in the test with SF-295 CNS. Moreover, the GI50 was 11 µM in the test with A549 NSCLC and 1.89 µM in the test with PC-3 prostate. Further, the TGI in the test on UACC-257 melanoma was 4.47 µM; in the test with CCRF-CEM leukemia, 9.4 µM; in the test with HOP-92 NSCLC, 3.86 µM; in the test with NCI-H23 lung, 61.4 µM; in the test with SW-620 colon it was 4.82 µM; in the test on SF-295 CNS it was 43.6 µM. The TGI in the test with A549 NSCLC was over 100 µM; in the test on PC-3 prostate, 6.76 µM.
Consider `NC(=O)N/N=C/C(/C=N/NC(N)=O)[N+](=O)[O-]`, for which the TGI in the test with UACC-257 melanoma, in the test on M19-MEL melanoma, with CCRF-CEM leukemia, with HOP-92 NSCLC, in the test on NCI-H23 lung and with SW-620 colon was over 100 µM in each case. The TGI in the test with SF-295 CNS and in the test with A549 NSCLC was over 100 µM throughout.
Turning to `N=c1nnc(=O)c2c(s1)-n1ncc(C(=O)O)c1NN2`, the TGI in the test on M19-MEL melanoma, with HOP-92 NSCLC, with NCI-H23 lung, in the test with SW-620 colon, in the test on SF-295 CNS and in the test with A549 NSCLC was over 100 µM throughout.
Take `O=c1[nH]c(=O)n(C2OC(CO)C(O)C2O)c2c1CCCC2` (stereo not given): the TGI in the test with UACC-257 melanoma, in the test on CCRF-CEM leukemia, in the test with HOP-92 NSCLC, in the test with NCI-H23 lung, with SW-620 colon and with SF-295 CNS was over 100 µM throughout. Besides, the TGI with A549 NSCLC and with PC-3 prostate was over 100 µM in each case.
